Assay results published in article PMC9395488, “First-in-human study of IM156, a novel potent biguanide oxidative phosphorylation (OXPHOS) inhibitor, in patients with advanced solid tumors” (Investigational New Drugs, 2022).

Tested on: patients with advanced solid tumors
Assay: First-in-human phase 1 dose-escalation study: safety, DLTs, adverse events
Assay type: in vivo
From the text: This multicenter first-in-human dose-escalation phase 1 study (clinicaltrials.gov identifier: NCT03272256) was designed to determine the MTD or RP2D and to evaluate the safety and tolerability of IM156. Secondary endpoints included PK characteristics, efficacy assessment (objective response rate [ORR], disease control rate [DCR], duration of response [DoR] and progression-free survival [PFS]). Furthermore, exploratory objectives included identification and profiling of IM156 metabolites, evaluations of exploratory PD markers of IM156, and evaluations of any potential relationship between putative biomarkers and safety/efficacy parameters of IM156. The study was conducted in accordance with Good Clinical Practice, the International Council for Harmonisation, and guidelines governing clinical study conduct and the ethical principles originating from the Declaration of Helsinki. The study was approved by each Institutional Review Board and patients provided written informed consent. Patients were enrolled at three sites in South Korea.
The initial dose and schedule of IM156 was chosen based on animal toxicology studies. […] IM156 was administered in the fasted state, with no food for at least 2 h before and 1 h after dosing.
Three DLT-evaluable patients were enrolled at each dose level. If there were no DLTs or other prohibitive adverse events (AEs), the Safety Committee was allowed to recommend escalation to the next highest dose level. If 1 DLT occurred in the first 3 DLT-evaluable patients, enrollment in that cohort was expanded to an additional 3 DLT-evaluable patients; if ≥ 2 DLTs were reported in a cohort, that dose was considered above the MTD.
Safety was assessed through vital signs, weight, laboratory assessments, physical examinations, electrocardiogram, and reporting of AEs as graded by the National Cancer Institute’s Common Terminology Criteria for Adverse Events v4.03 (NCI-CTCAE).
DLTs were defined as the following AEs if they were attributed as related to IM156: asymptomatic grade 4 neutropenia lasting for ≥ 5 days; febrile neutropenia, regardless of grade; grade 4 thrombocytopenia or grade 3 thrombocytopenia with bleeding; any grade ≥ 3 non-hematologic AE (except grade 3 hypertension and grade 3 nausea, vomiting or diarrhea for which proper measures for prevention and treatment were not implemented, and alopecia); blood lactate levels > 5 mmol; grade ≥ 2 AE prohibiting dosing of IM156 for ≥ 21 continuous days except for alterations in serum calcium or phosphorus levels. The safety analysis includes all patients who received at least one dose of study drug.
The safety population was defined as all patients who received at least one dose of IM156. The PK population was not defined in the protocol but included all patients with sufficient PK data to perform adequate PK modeling. The efficacy population included all patients who underwent at least one tumor imaging assessment while receiving IM156. Safety was assessed using descriptive statistics (e.g., DLTs, AEs, laboratory tests, physical examination, 12-lead ECG). The incidence and number of events were reported for the DLTs observed in Cycle 1 per dose group. […] Adverse events and TRAEs were standardized with the System Organ Class and the Preferred Term using the Medical Dictionary for Regulatory Activities v23.0. In addition, TEAEs, serious adverse events (SAEs), TEAE severity, and TEAEs leading to withdrawal were presented by dose group. Efficacy data were to be presented by Waterfall and Swim Lane plots. Time to event endpoints (e.g., DoR, PFS) were determined using Kaplan–Meier estimations with the median value for each endpoint summarized.

[1] = DL1 100 mg orally every other day (n=3)
[2] = DL2 200 mg orally every other day (n=3)

## NC(=Nc1ccc(OC(F)(F)F)cc1)N=C(N)N1CCCC1 [IM156]
[1]
  TEAE Psychiatric disorders grade 1: 0
  TEAE Psychiatric disorders grade 2: 0
  TEAE Psychiatric disorders grade 3: 0
  TEAE Psychiatric disorders grade 4: 0
  TEAE Purpura grade 1: 0
  TEAE Purpura grade 2: 0
  TEAE Purpura grade 3: 0
  TEAE Purpura grade 4: 0
  TEAE Urinary retention grade 1: 0
  TEAE Urinary retention grade 2: 0
  TEAE Urinary retention grade 3: 0
  TEAE Urinary retention grade 4: 0
  TEAE Urinary tract disorder grade 1: 0
  TEAE Urinary tract disorder grade 2: 0
  TEAE Urinary tract disorder grade 3: 0
  TEAE Urinary tract disorder grade 4: 0
DL2 200 mg QOD (n=3)
  TEAE Abdominal pain, grade 2: 1
  TEAE Alanine aminotransferase increased, grade 1: 1
  TEAE Asthenia, grade 1: 1
  TEAE Cough, grade 1: 1
  TEAE Diarrhoea, grade 2: 1
  TEAE Ileus, grade 3: 1
  TEAE Nausea, grade 1: 1
  TEAE Pleural effusion, grade 2: 1
  TEAE Pyrexia, grade 1: 1
  TEAE Vomiting, grade 1: 2
DL2 200 mg QOD oral, N = 3
  TRAE Abdominal Pain, > G3 (patients): 0
  TRAE Abdominal Pain, All grades (patients): 0
  TRAE Blood Lactic Acid increased, > G3 (patients): 0
  TRAE Blood Lactic Acid increased, All grades (patients): 0
  TRAE Constipation, > G3 (patients): 0
  TRAE Constipation, All grades (patients): 0
  TRAE Decreased appetite, > G3 (patients): 0
  TRAE Decreased appetite, All grades (patients): 1
  TRAE Diarrhoea, > G3 (patients): 0
  TRAE Diarrhoea, All grades (patients): 1
  TRAE Fatigue, > G3 (patients): 0
  TRAE Fatigue, All grades (patients): 0
  TRAE Insomnia, > G3 (patients): 0
  TRAE Insomnia, All grades (patients): 1
  TRAE Nausea, > G3 (patients): 0
  TRAE Nausea, All grades (patients): 1
  TRAE Vomiting, > G3 (patients): 0
  TRAE Vomiting, All grades (patients): 2
[2]
  TEAE Adrenal insufficiency grade 1: 0
  TEAE Adrenal insufficiency grade 2: 0
  TEAE Adrenal insufficiency grade 3: 0
  TEAE Adrenal insufficiency grade 4: 0
  TEAE Anaemia grade 1: 0
  TEAE Anaemia grade 2: 1
  TEAE Anaemia grade 3: 0
  TEAE Anaemia grade 4: 0
  TEAE Appendicitis perforated grade 1: 0
  TEAE Appendicitis perforated grade 2: 0
  TEAE Appendicitis perforated grade 3: 0
  TEAE Appendicitis perforated grade 4: 0
  TEAE Back pain grade 1: 0
  TEAE Back pain grade 2: 0
  TEAE Back pain grade 3: 0
  TEAE Back pain grade 4: 0
  TEAE Cystitis grade 1: 0
  TEAE Cystitis grade 2: 0
  TEAE Cystitis grade 3: 0
  TEAE Cystitis grade 4: 0
  TEAE Dry skin grade 1: 0
  TEAE Dry skin grade 2: 0
  TEAE Dry skin grade 3: 0
  TEAE Dry skin grade 4: 0
  TEAE Flank pain grade 1: 0
  TEAE Flank pain grade 2: 1
  TEAE Flank pain grade 3: 0
  TEAE Flank pain grade 4: 0
  TEAE Hypertension grade 1: 0
  TEAE Hypertension grade 2: 0
  TEAE Hypertension grade 3: 0
  TEAE Hypertension grade 4: 0
  TEAE Hypotension grade 1: 0
  TEAE Hypotension grade 2: 0
  TEAE Hypotension grade 3: 0
  TEAE Hypotension grade 4: 0
  TEAE Insomnia grade 1: 0
  TEAE Insomnia grade 2: 1
  TEAE Insomnia grade 3: 0
  TEAE Insomnia grade 4: 0
  TEAE Pain in extremity grade 1: 0
  TEAE Pain in extremity grade 2: 0
  TEAE Pain in extremity grade 3: 0
  TEAE Pain in extremity grade 4: 0
  TEAE Pruritus grade 1: 0
  TEAE Pruritus grade 2: 0
  TEAE Pruritus grade 3: 0
  TEAE Pruritus grade 4: 0
  TEAE Psychiatric disorders grade 1: 0
  TEAE Psychiatric disorders grade 2: 1
  TEAE Psychiatric disorders grade 3: 0
  TEAE Psychiatric disorders grade 4: 0
  TEAE Purpura grade 1: 0
  TEAE Purpura grade 2: 0
  TEAE Purpura grade 3: 0
  TEAE Purpura grade 4: 0
  TEAE Urinary retention grade 1: 0
  TEAE Urinary retention grade 2: 0
  TEAE Urinary retention grade 3: 0
  TEAE Urinary retention grade 4: 0
  TEAE Urinary tract disorder grade 1: 0
  TEAE Urinary tract disorder grade 2: 0
  TEAE Urinary tract disorder grade 3: 0
  TEAE Urinary tract disorder grade 4: 0
DL3 400 mg QOD (n=3)
  TEAE Cough, grade 1: 1
  TEAE Headache, grade 2: 1
  TEAE Nausea, grade 1: 1
  TEAE Nausea, grade 2: 2
  TEAE Neutrophil count decreased, grade 4: 1
  TEAE Peripheral sensory neuropathy, grade 1: 1
  TEAE Vomiting, grade 1: 2
DL3 400 mg QOD oral, N = 3
  TRAE Abdominal Pain, > G3 (patients): 0
  TRAE Abdominal Pain, All grades (patients): 0
